Values of other authors as cited in patent US5739081A, “Water dispersible granules of liquid pesticides” (ICI Australia Operations Proprietary Ltd., priority 1992, dated 1998).
≈ marks a conversion by molar mass, not a printed value.

Conditions: in water
For CCOC(=O)/C=C(C)/C=C/CC(C)CCCC(C)C (stereo not drawn) [Hydroprene], the Solubility in water is listed as 0.54 µg/mL (≈ 2.03 µM).
In the case of CNC(=O)CSP(=O)(OC)OC [Omethoate], the Solubility in water is listed as 500 µg/mL (≈ 2350 µM).
For CCOP(=S)(OCC)SCCSCC [Disulfoton], the Solubility in water is given as 25 µg/mL (≈ 91.1 µM).
For CCOP(=S)(OCC)Oc1ccc([N+](=O)[O-])cc1 [Parathion], the Solubility in water is listed as 24 µg/mL (≈ 82.4 µM).
For CCOP(=S)(NC(C)CC)Oc1cc(C)ccc1[N+](=O)[O-] (stereo not drawn) [Butamifos], the Solubility in water is listed as 5.1 µg/mL (≈ 15.3 µM).
For COP(=S)(OC)Oc1ccc([N+](=O)[O-])c(C)c1 [Fenitrophion], the Solubility in water is listed as 14 µg/mL (≈ 50.5 µM).
For CCSCCSP(=S)(OC)OC [Thiometon], the Solubility in water is given as 200 µg/mL (≈ 812 µM).
For CCN(CC)C(=O)SCc1ccc(Cl)cc1 [Thiobencarb], the Solubility in water is listed as 30 µg/mL (≈ 116 µM).
For CCOP(=O)(OCC)OC(=CCl)c1ccc(Cl)cc1Cl [Chlorfenvinphos], the Solubility in water is listed as 145 µg/mL (≈ 403 µM).
For CCN(CC)c1nc(C)cc(OP(=S)(OC)OC)n1 [Pirimiphos-methyl], the Solubility in water is listed as 5 µg/mL (≈ 16.4 µM).
For CCSC(=O)N(CC(C)C)CC(C)C [Butylate], the Solubility in water is given as 46 µg/mL (≈ 212 µM).
In the case of CON=C(Cc1cccnc1)c1ccc(Cl)cc1Cl [Pyrifenox], the Solubility in water is given as 115 µg/mL (≈ 390 µM).
In the case of CCCCOCN(C(=O)CCl)c1c(CC)cccc1CC [Butachlor], the Solubility in water is given as 23 µg/mL (≈ 73.8 µM).
In the case of C#CCOS(=O)OC1CCCCC1Oc1ccc(C(C)(C)C)cc1 (stereo not drawn) [Propargite], the Solubility in water is listed as 1.9 µg/mL (≈ 5.42 µM).
In the case of CCCN(CCC)C(=O)SCc1ccccc1 [Prosulfocarb], the Solubility in water is given as 13.2 µg/mL (≈ 52.5 µM).
For CCCSP(=O)(OCC)Oc1cnn(-c2ccc(Cl)cc2)c1 (stereo not drawn) [Pyraclofos], the Solubility in water is listed as 33 µg/mL (≈ 91.5 µM).
For CCOP(=O)(N=C1SCC(C)S1)OCC (stereo not drawn) [Mephosfolan], the Solubility in water is given as 57 µg/mL (≈ 212 µM).
In the case of CCSCCSP(=O)(OC)OC [Demeton-S-methyl], the Solubility in water is listed as 3300 µg/mL (≈ 14300 µM).
In the case of CC1(C)[C@H](C(=O)O[C@H](C#N)c2cccc(Oc3ccccc3)c2)[C@@H]1/C=C(\Cl)C(F)(F)F [Lambda-cyhalothrin], the Solubility in water is listed as 0.005 µg/mL (≈ 0.0111 µM).
In the case of COP(=O)(OC)OC1=C(Cl)C2C=CCC12 (stereo not drawn) [Heptenophos], the Solubility in water is given as 2200 µg/mL (≈ 8780 µM).
In the case of CCNP(=S)(OC)O/C(C)=C/C(=O)OC(C)C (stereo not drawn) [Propetamphos], the Solubility in water is given as 110 µg/mL (≈ 391 µM).
For C#CCON=C1CC2CCC1(C)C2(C)C (racemic) [Heptopargil], the Solubility in water is listed as 1000 µg/mL (≈ 4870 µM).
In the case of CCCC1COC(Cn2cncn2)(c2ccc(Cl)cc2Cl)O1 (stereo not drawn) [Propiconazole], the Solubility in water is given as 110 µg/mL (≈ 321 µM).
For CCc1cccc(C)c1N(C(=O)CCl)C(C)COC (stereo not drawn) [Metolachlor], the Solubility in water is listed as 530 µg/mL (≈ 1870 µM).
In the case of CCCCN(CC)C(=O)SCCC [Pebulate], the Solubility in water is given as 60 µg/mL (≈ 295 µM).
For CC1(C)C(/C=C(\Cl)C(F)(F)F)C1C(=O)OC(C#N)c1cccc(Oc2ccccc2)c1 (stereo not drawn) [Cyhalothrin], the Solubility in water is given as 0.003 µg/mL (≈ 0.00667 µM).
In the case of CCOP(=S)(NC(C)C)Oc1ccccc1C(=O)OC(C)C (stereo not drawn) [Isofenphos], the Solubility in water is given as 23.8 µg/mL (≈ 68.9 µM).
In the case of CCCCCCCCCCCCCN1CC(C)OC(C)C1 (stereo not drawn) [Tridemorph], the Solubility in water is listed as 11.7 µg/mL (≈ 39.3 µM).
For CC(Cc1ccc(C(C)(C)C)cc1)CN1C[C@@H](C)O[C@@H](C)C1 (stereo partly drawn) [Fenpropimorph], the Solubility in water is given as 10 µg/mL (≈ 33 µM).
For CCCCOC(=O)[C@@H](C)Oc1ccc(Oc2ccc(C(F)(F)F)cn2)cc1 [Fluazifop-P-butyl], the Solubility in water is given as 1 µg/mL (≈ 2.61 µM).

Same assay, conditions: in water; in words
For Dinocap, the Solubility in water is listed as “Sp. soluble”.
In the case of CC(C)N(Cc1ccccc1)C(=O)C(C)(C)C [Tebutam], the Solubility in water is listed as “Almost Insoluble”.

Same assay, conditions: water
In the case of CCOP(=S)(OCC)SCCl [Chlorimephos], the Solubility in water is listed as 60 µg/mL (≈ 256 µM).
For CC1(C)C(C=C(Cl)Cl)C1C(=O)OCc1cccc(Oc2ccccc2)c1 (stereo not drawn) [Permethrin], the Solubility in water is listed as 0.2 µg/mL (≈ 0.511 µM).
For CCOP(=S)(OCC)Oc1cc(C)nc(C(C)C)n1 [Diazinon], the Solubility in water is given as 40 µg/mL (≈ 131 µM).
In the case of CCCSP(=O)(OCC)Oc1ccc(Br)cc1Cl (stereo not drawn) [Profenofos], the Solubility in water is listed as 20 µg/mL (≈ 53.5 µM).
